Source: ChEMBL document CHEMBL1156460, “Lumazine synthase from Candida albicans as an anti-fungal target enzyme: structural and biochemical basis for drug design” (J Biol Chem, 2007)

test system: Candida albicans; test: Binding affinity to Candida albicans lumazine synthase

Compared with `O=c1[nH]c(Cl)c(CCCCOP(=O)(O)O)c(=O)[nH]1`, `O=c1[nH]c(=O)c2c([nH]1)n(C[C@H](O)[C@H](O)[C@H](O)CO)c(=O)n2CCCOP(=O)(O)O` is 1.9-fold lower in Ka: 6.61e+06 M⁻¹ for the first, 3.53e+06 M⁻¹ for the second.

First: O=c1[nH]c(=O)c2[nH]c(=O)n(C[C@H](O)[C@H](O)[C@H](O)CO)c2[nH]1
Second: O=c1[nH]c(=O)c2c([nH]1)n(C[C@H](O)[C@H](O)[C@H](O)CO)c(=O)c(=O)n2CCCCOP(=O)(O)O
The Ka of the first is 2.2-fold lower: 758000 M⁻¹ for the first, 1.63e+06 M⁻¹ for the second.
